Results from patent publication US20110105430A1, “PYRROLO [2,3-C] PYRIDINE DERIVATIVES AS P38 KINEASE INHIBITING AGENTS” (priority 2008, published 2011).

How the values were obtained:
[1] = biological target: T1, p38α (Homo sapiens, UniProt Q16539); experiment: p38 kinase assay, p38-α with peptide substrate (Caliper LabChip); assay type: biochemical
T1 construct: purchased Millipore
Description: Alternatively, p38 kinase assays were performed in a reaction volume of 70 μL in a 384-well plate, at 30° for […] under the following conditions: 50 mM Hepes, pH 7.4, 10 mM MgCl2, 1 mg/ml FA Free BSA, 1 mM DTT, 10 μM ATP, 10 μM p38 peptide [Caliper Life Sciences FL-Peptide 8 (5-FAM-IPTSPITTTYFFFKKK-COOH)] and 5.7 nM p38-α (Millipore), or 14.3 nM unactivated MAPKAP kinase-2, 0.18 nM p38-α (Millipore) and 2 uM RSK peptide [Caliper Life Sciences FL-Peptide 11 (5-FAM-KKLNRTLSVA-COOH)]. Serial dilutions of compounds were added to each reaction in 700 nL DMSO. 700 nL of DMSO was added to the control wells of the reaction plate as the no inhibitor control for each inhibitor titration. The reaction was terminated by the addition of 15 μL of a 100 mM EDTA. Product formation was analyzed using the Caliper LabChip 3000. The Separation buffer contained 100 mM HEPES pH 7.5, 0.015% Brij-35, 2.5% Coating Reagent #3 (Caliper Life Sciences) and 10 mM EDTA. Calculation of the substrate product ratios are performed using the HTS Well Analyzer software provided by Caliper Life Sciences and the percent inhibition at each compound concentration is determined.

[2] = system: TNF-α; experiment: IC50 hWB (TNF-α release assay); assay type: cell-based; conditions: Homo sapiens
Description: Blood was obtained from healthy volunteers by venipuncture using sodium heparin as an anti-coagulant. Peripheral blood mononuclear cells (PBMCs) were isolated using Lymphocyte Separation Medium (ICN) according to manufacturers specifications. Isolated PBMCs were washed 3 times with FIBSS and diluted to a density of 2×10^6 cells/mL in RPMI+5% autologous human serum. 50 μL of the serial dilutions of inhibitor were added to wells of a 96-well tissue culture plate followed by addition of 100 μL of PBMCs and then 50 μL of RPMI complete medium containing 400 ng/mL LPS. A control well of cells without compound but with LPS (maximal stimulation control) and one without compound and without LPS (background control) were included in each titration. The cells were incubated for 16 hours in a humidified incubator at 37° C., 5% CO2. Supernatants were then harvested and TNF-α levels were quantified by immunoassay using commercial reagents (R&D, Inc).

T1 sequence (Q16539 whole entry): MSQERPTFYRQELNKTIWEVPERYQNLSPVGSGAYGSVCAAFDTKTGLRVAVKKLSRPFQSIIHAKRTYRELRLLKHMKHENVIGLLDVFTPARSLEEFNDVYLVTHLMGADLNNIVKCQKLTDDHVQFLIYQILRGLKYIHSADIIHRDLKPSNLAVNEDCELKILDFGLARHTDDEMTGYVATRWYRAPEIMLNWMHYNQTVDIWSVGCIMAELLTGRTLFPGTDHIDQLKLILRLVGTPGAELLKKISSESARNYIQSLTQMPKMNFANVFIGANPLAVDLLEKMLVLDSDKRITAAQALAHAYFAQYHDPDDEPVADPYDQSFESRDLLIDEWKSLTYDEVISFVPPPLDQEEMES

| Compound | IC50 [1] | IC50 [2] |
| --- | --- | --- |
| O=C(NCC(F)(F)F)c1cnc2nc(Cn3ccc4c(C(=O)c5c(F)cc(F)cc5F)c[nH]c4c3=O)[nH]c2c1 [Example 15, 2-{[7-oxo-3-(2,4,6-trifluorobenzoyl)-1,7-dihydro-6H-pyrrolo[2,3-c]pyridin-6-yl]methyl}-N-(2,2,2-trifluoroethyl)-3H-imidazo[4,5-b]pyridine-6-carboxamide] | 8.6 nM | 103 nM |
| O=C(c1c(F)cc(F)cc1F)c1c[nH]c2c(=O)n(Cc3nc4ccccc4[nH]3)ccc12 [Example 1, 6-(1H-benzimidazol-2-ylmethyl)-3-(2,4,6-trifluorobenzoyl)-1,6-dihydro-7H-pyrrolo[2,3-c]pyridin-7-one] | 45 nM | 461 nM |

Second part, the compound after the results:

| IC50 [1] | IC50 [2] | Compound |
| --- | --- | --- |
| 38 nM | 248 nM | O=C(c1c(F)cccc1F)c1c[nH]c2c(=O)n(Cc3nc4cccnc4[nH]3)ccc12 [Example 7, 3-(2,6-difluorobenzoyl)-6-(3H-imidazo[4,5-b]pyridin-2-ylmethyl)-1,6-dihydro-7H-pyrrolo[2,3-c]pyridin-7-one] |
| 16 nM | 217 nM | Cc1ccc2nc(Cn3ccc4c(C(=O)c5c(F)cccc5F)c[nH]c4c3=O)cn2n1 [Example 9, 3-(2,6-difluorobenzoyl)-6-[(6-methylimidazo[1,2-b]pyridazin-2-yl)methyl]-1,6-dihydro-7H-pyrrolo[2,3-c]pyridin-7-one] |
| 5.3 nM | 88 nM | O=C(c1c(F)cc(F)cc1F)c1c[nH]c2c(=O)n(Cc3cn4cccnc4n3)ccc12 [Example 5, 6-(imidazo[1,2-a]pyrimidin-2-ylmethyl)-3-(2,4,6-trifluorobenzoyl)-1,6-dihydro-7H-pyrrolo[2,3-c]pyridin-7-one] |
